Values belong to the compound of their own block, whether it stands above or below them.
How the values were obtained:
HAase [1] = molecular target: T1, HAase (Homo sapiens, UniProt P38567); assay: Compatibility study of HAase and antibiotic in solution: HAase activity; type: biochemical; conditions: 15 min room temperature; for Final concentration of HAase (units/ml) 150: HAase added to 150 units/ml; for Final concentration of HAase (units/ml) 500: HAase added to 500 units/ml; for Final concentration of HAase (units/ml) 2000: HAase added to 2000 units/ml; for Final concentration of HAase (units/ml) 6000: HAase added to 6000 units/ml; for interference with the activity of HAase: antibiotic and HAase in physiological saline
T1 construct: made in house
T1 sequence (P38567 36-482): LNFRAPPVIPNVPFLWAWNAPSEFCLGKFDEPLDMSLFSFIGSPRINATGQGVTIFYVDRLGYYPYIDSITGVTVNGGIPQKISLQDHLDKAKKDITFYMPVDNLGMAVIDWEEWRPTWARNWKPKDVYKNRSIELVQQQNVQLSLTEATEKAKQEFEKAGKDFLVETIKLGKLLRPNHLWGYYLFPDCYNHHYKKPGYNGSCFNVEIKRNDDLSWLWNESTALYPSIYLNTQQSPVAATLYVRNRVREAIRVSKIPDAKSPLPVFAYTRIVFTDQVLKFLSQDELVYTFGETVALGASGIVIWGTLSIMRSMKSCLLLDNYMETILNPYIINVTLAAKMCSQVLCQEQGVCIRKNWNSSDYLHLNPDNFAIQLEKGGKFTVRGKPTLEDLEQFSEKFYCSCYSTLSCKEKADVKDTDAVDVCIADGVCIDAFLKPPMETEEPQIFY
Method: “HAase activity refers to the ability of HAase to catalytically cleave hyaluronic acid. The Chinese Pharmacopoeia provides a method for determining the HAase activity, indirectly by measuring the amount of remaining higher-molecular-weight hyaluronic acid substrate after the enzyme is allowed to catalytically cleave hyaluronic acid at 37° C. for 30 min. A standard reference solution can be used in the assay to determine the relative activity (in units) of any HAase. In-vitro assays for the determination of HAase are known in the art. Exemplary assays include micro-turbidimetric assay described below, which indirectly measures the cleavage of hyaluronic acid by HAase by detecting an insoluble precipitate formed when uncleaved hyaluronic acid binds to serum albumin. The reference standard can be used, for example, to generate a standard curve, so as to determine the activity of the tested HAase in units.
(§1) The compatibility of HAase and an antibiotic was studied by preparing a solution comprising the two substances. A dry Meropenem power for injection was dissolved in physiological saline to give a concentration of 5 mg/ml and 50 mg/ml, and then HAase was added to give a final concentration of 150, 500, 2000, and 6000 units/ml respectively. After preparation, the solution was left to stand at room temperature for 15 min. The appearance of the solution was observed, and the concentration of HAase was determined.
as §1, with “dry Ceftriaxone sodium” for “dry Meropenem”, “of 50” for “of 5”, “and 250” for “and 50”
as §1, with “dry Azithromycin” for “dry Meropenem”, “of 10” for “of 5”, “and 100” for “and 50”
as §1, with “dry Cefradine powder” for “dry Meropenem power”, “of 50” for “of 5”, “and 250” for “and 50”
as §1, with “dry Teicoplanin powder” for “dry Meropenem power”, “of 10” for “of 5”, “and 70” for “and 50”
as §1, with “dry Ceftazidime powder” for “dry Meropenem power”, “of 20” for “of 5”, “and 200” for “and 50”, “min.” for “min. The appearance of the solution was observed, and the concentration of HAase was determined.”

[2] = Compatibility study of HAase and antibiotic in solution: appearance of the solution; type: physicochemical; conditions: 8 solutions of antibiotic (two concentrations) with HAase 150-6000 units/ml in physiological saline
Method: as §1
as §1, with “dry Ceftriaxone sodium” for “dry Meropenem”, “of 50” for “of 5”, “and 250” for “and 50”
as §1, with “dry Azithromycin” for “dry Meropenem”, “of 10” for “of 5”, “and 100” for “and 50”
as §1, with “dry Cefradine powder” for “dry Meropenem power”, “of 50” for “of 5”, “and 250” for “and 50”
as §1, with “dry Teicoplanin powder” for “dry Meropenem power”, “of 10” for “of 5”, “and 70” for “and 50”
as §1, with “dry Ceftazidime powder” for “dry Meropenem power”, “of 20” for “of 5”, “and 200” for “and 50”
as §1, with “dry Ertapenem” for “dry Meropenem”, “of 30” for “of 5”, “and 300” for “and 50”
The compatibility of HAase and an antibiotic was studied by preparing a solution comprising the two substances. A dry Polymyxin B powder for injection was dissolved in physiological saline to give a concentration of 50,000 units/ml and 250,000 units/ml, and then HAase was added to give a final concentration of 150, 500, 2000, and 6000 units/ml respectively.

HAase [3] = molecular target: T1, HAase; assay: Compatibility study of HAase and antibiotic in solution: HAase activity; type: biochemical; conditions: antibiotic 50,000 units/ml in physiological saline; HAase added to 150 units/ml; 15 min room temperature
[4] = antibiotic 10 mg/ml in physiological saline
[5] = antibiotic 100 mg/ml in physiological saline
[6] = antibiotic 50,000 units/ml in physiological saline
[7] = antibiotic 250,000 units/ml in physiological saline
[8] = antibiotic 5 mg/ml in physiological saline
[9] = antibiotic 50 mg/ml in physiological saline

Final concentration of HAase (units/ml) 150 (HAase [1]; [4]): 152 units/ml
Final concentration of HAase (units/ml) 500 (HAase [1]; [4]): 482 units/ml
Final concentration of HAase (units/ml) 2000 (HAase [1]; [4]): 1651 units/ml
Final concentration of HAase (units/ml) 6000 (HAase [1]; [4]): 6140 units/ml
Final concentration of HAase (units/ml) 150 (HAase [1]; [5]): 140 units/ml
Final concentration of HAase (units/ml) 500 (HAase [1]; [5]): 500 units/ml
Final concentration of HAase (units/ml) 2000 (HAase [1]; [5]): 1760 units/ml
Final concentration of HAase (units/ml) 6000 (HAase [1]; [5]): 5818 units/ml
appearance of the solution [2]: clear and transparent
Compound: CC[C@H]1OC(=O)[C@H](C)[C@@H](O[C@H]2C[C@@](C)(OC)[C@@H](O)[C@H](C)O2)[C@H](C)[C@@H](O[C@@H]2O[C@H](C)C[C@H](N(C)C)[C@H]2O)[C@](C)(O)C[C@@H](C)CN(C)[C@H](C)[C@@H](O)[C@]1(C)O [Azithromycin]
interference with the activity of HAase (HAase [1]): does not interfere with the activity of HAase

Compound: Polymyxin B
Final concentration of HAase (units/ml) 500 (HAase [1]; [6]): 488 units/ml
Final concentration of HAase (units/ml) 2000 (HAase [1]; [6]): 2126 units/ml
Final concentration of HAase (units/ml) 6000 (HAase [1]; [6]): 5899 units/ml
Final concentration of HAase (units/ml) 150 (HAase [1]; [7]): 151 units/ml
Final concentration of HAase (units/ml) 500 (HAase [1]; [7]): 501 units/ml
Final concentration of HAase (units/ml) 2000 (HAase [1]; [7]): 2014 units/ml
Final concentration of HAase (units/ml) 6000 (HAase [1]; [7]): 6090 units/ml
interference with the activity of HAase (HAase [1]): does not interfere with the activity of HAase
Final concentration of HAase (units/ml) 150 (HAase [3]): 149 units/ml
appearance of the solution [2]: clear and transparent

Final concentration of HAase (units/ml) 150 (HAase [1]; [8]): 150 units/ml
Final concentration of HAase (units/ml) 500 (HAase [1]; [8]): 511 units/ml
Final concentration of HAase (units/ml) 2000 (HAase [1]; [8]): 1979 units/ml
Final concentration of HAase (units/ml) 6000 (HAase [1]; [8]): 6271 units/ml
Final concentration of HAase (units/ml) 150 (HAase [1]; [9]): 145 units/ml
Final concentration of HAase (units/ml) 500 (HAase [1]; [9]): 491 units/ml
Final concentration of HAase (units/ml) 2000 (HAase [1]; [9]): 1984 units/ml
Final concentration of HAase (units/ml) 6000 (HAase [1]; [9]): 6121 units/ml
appearance of the solution [2]: clear and transparent
Compound: C[C@@H](O)[C@H]1C(=O)N2C(C(=O)O)=C(S[C@@H]3CN[C@H](C(=O)N(C)C)C3)[C@H](C)[C@H]12 [Meropenem]
interference with the activity of HAase (HAase [1]): does not interfere with the activity of HAase
